Where a chain is given by its changes, count along the chain named. “Also recorded” adds a separate entry of the source. Read-outs that look alike come from different tables or passages of the source.
Assays:
[1] = biological target: T1, His-tagged ERR3 LBD / GST-tagged SRC-1 RID complex (Homo sapiens, UniProt P62508); assay: In vitro protein-protein interaction assay, wt ERR3 LBD with SRC-1 RID (native gel); format: biochemical; conditions: 10^−4M ligand
T1 construct: cDNA fragments encoding wt or mutant ERR3 LBDs (residues 229 to 458, human and murine receptor are identical) were generated by PCR; made in house; host or cells: E. coli BL21 (DE3)
T1 sequence (P62508 229-458): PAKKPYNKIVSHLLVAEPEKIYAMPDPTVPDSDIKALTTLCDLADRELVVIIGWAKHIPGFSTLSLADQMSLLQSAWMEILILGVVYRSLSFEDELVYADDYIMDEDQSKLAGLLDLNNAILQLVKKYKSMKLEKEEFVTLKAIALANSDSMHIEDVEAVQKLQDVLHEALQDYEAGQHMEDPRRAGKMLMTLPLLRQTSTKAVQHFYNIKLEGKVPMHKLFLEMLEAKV
Procedure: (§1) The His-tagged wt or mutant ERR3 LBDs, the GST-tagged SRC-1 RID, and GST were expressed in E. coli BL21 (DE3) and partially purified by affinity chromatography using TALON (Clontech) or Glutathione Sepharose 4B (Pharmacia), respectively. […] After purification the proteins were dialyzed in assay buffer (20 mM Tris.HCl pH 8.0, 200 mM NaCl), and concentrated. For the protein-protein interaction assays […] (about 70 pmol) of His-tagged wt or mutant ERR3 LBD were mixed with […] (about 100 pmol) of GST-tagged SRC-1 RID or […] of GST and incubated on ice for 10 mins. […] Protein complexes were resolved on native polyacrylamide gradient gels (8%-25%) using the Phast System (Pharmacia).
(§2) In vitro interaction assays with the RID (amino acids 617-764) of the coactivator SRC-1 has first been performed. Hexahistidine (His)-tagged ERR3, LBD and GST-tagged SRC-1 RID were partially purified by affinity chromatography, the proteins were mixed, and complex formation was monitored on native polyacrylamide gels. […] Complexes were separated on native polyacrylamide gradient gels.

[2] = tested on: mutant ERR3 LBDs (A272F, A272L, F435L, L345I, L345I-F435L, L345I-F435L-F450L) / GST-SRC-1 RID complex; assay: In vitro protein-protein interaction assay, mutant ERR3 LBDs with SRC-1 RID (native gel); format: biochemical, human; conditions: 10^−4M 4-OHT
Procedure: as §1, §2
In addition, the ligand-binding pocket of ERR3 has been enlarged by either mutating F435 to leucine or by introducing a triple point mutation (L345I-F435L-F450L) which creates an “ERα-like” ligand-binding pocket.

[3] = biological target: T2, Gal4-ERR3 (Homo sapiens, UniProt P62508); assay: Transient transfection luciferase reporter assay, Gal4-ERR3 (wt LBD) in COS-1 cells; format: cell-based
T2 construct: cDNA fragments encoding wt or mutant ERR3 LBDs (residues 229 to 458, human and murine receptor are identical) were generated by PCR; expressed in transfected cells; host or cells: COS-1 cells (also Neuro2A and BHK)
T2 sequence (P62508 229-458): T1 sequence (P62508 229-458)
Procedure: (§3) COS-1 and BHK cells were cultured in DMEM supplemented with 5% FCS, penicillin, streptomycin, and glutamine. Neuro2A cells were cultured in EMEM supplemented with 10% FCS, penicillin, streptomycin, glutamine, and non-essential amino acids. Transient transfection assays were carried out in 24-well plates (0.5×10^5 cells per well for COS-1 and Neuro2A cells, 0.25×10^5 cells per well for BHK cells) using the standard calcium phosphate coprecipitation technique as described in Greiner et al. (Greiner et al., 1996). Cells were transfected with 250 ng of Gal4(5×)-TATA-LUC, Gal4(3×)-TK-LUC, or ERE(2×)-TK-LUC reporter plasmid and 50 ng per well of pCMX-Gal4-ERR3 or pCMX-ERR3 expression plasmid. The empty plasmids pCMX-Gal4 and pCMX served as control. […] Luciferase activity was assayed as described in Greiner et al. (1996). All experiments were repeated at least three times.
(§4) Finally, it has been asked whether ERR3 could activate transcription independently of a putative endogenous ligand. The wt and mutant ERR3 LBDs were fused to the DNA-binding domain of Gal4, and Gal4-ERR3 fusion proteins were tested for their potential to activate transcription in transient transfection assays using synthetic reporters in eukaryotic cell lines. […]

[4] = tested on: Gal4-ERR3 mutants (A272F, A272L, F435L, L345I-F435L-F450L); assay: Transient transfection luciferase reporter assay, mutant Gal4-ERR3 fusion proteins in COS-1 cells; format: cell-based, human; conditions: 10^−6M 4-OHT
Procedure: as §3, §4

[5] = biological target: full length ERR3 (Homo sapiens, UniProt P62508); assay: Transient transfection with ERE(2×)-TK-LUC reporter, full length ERR3; format: cell-based; conditions: in the presence of 4-OHT
Procedure: as §3

[6] = biological target: T3, ERR3 (Homo sapiens, UniProt P62508); conditions: Coward et al. (2001); cited from earlier work
T3 sequence (P62508 1-458): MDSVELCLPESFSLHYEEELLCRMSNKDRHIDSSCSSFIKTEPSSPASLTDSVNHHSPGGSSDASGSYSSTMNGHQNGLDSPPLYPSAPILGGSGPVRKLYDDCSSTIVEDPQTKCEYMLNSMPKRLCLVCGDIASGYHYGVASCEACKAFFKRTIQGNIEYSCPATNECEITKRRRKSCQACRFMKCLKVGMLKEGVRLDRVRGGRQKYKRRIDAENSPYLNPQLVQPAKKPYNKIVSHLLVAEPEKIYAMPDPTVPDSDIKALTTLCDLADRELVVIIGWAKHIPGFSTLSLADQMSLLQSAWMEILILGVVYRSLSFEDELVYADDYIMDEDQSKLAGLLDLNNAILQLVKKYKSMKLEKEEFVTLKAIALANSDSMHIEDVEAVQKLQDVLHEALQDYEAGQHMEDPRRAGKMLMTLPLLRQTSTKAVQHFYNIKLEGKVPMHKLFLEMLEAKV

[7] = tested on: ERR1, ERR2 and ERR3; conditions: Coward et al., 2001 / reported, cited from earlier work
[8] = biological target: T3, ERR3; conditions: Coward et al. (2001); cited from earlier work; remark: listed apart in the source
[9] = biological target: T4, ERRα (Homo sapiens, UniProt P11474); conditions: micromolar concentrations; Yang and Chen (1999); cited from earlier work
T4 sequence (P11474 1-423): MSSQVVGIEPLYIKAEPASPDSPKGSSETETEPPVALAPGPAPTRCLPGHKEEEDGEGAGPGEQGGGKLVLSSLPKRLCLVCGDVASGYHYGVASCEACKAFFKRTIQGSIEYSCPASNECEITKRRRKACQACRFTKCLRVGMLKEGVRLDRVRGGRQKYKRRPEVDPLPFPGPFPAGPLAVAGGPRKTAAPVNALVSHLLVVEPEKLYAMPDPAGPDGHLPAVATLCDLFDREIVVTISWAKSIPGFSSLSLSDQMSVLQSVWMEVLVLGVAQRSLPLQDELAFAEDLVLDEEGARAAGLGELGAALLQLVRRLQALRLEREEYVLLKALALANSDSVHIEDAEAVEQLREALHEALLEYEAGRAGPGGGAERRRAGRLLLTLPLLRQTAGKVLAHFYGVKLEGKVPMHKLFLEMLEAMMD

[10] = biological target: T5, ERR1 mutant F328 to alanine (Homo sapiens, UniProt P11474, F232A); conditions: Chen S et al., 2001; cited from earlier work
T5 sequence (P11474 1-423 F232A): T4 sequence (P11474 1-423) with F232A

| Compound | conformational change of the ERR3 LBD (migration on native gels) [1] | disruption of the ERR3 LBD/GST-SRC-1 RID complex ([1]; native polyacrylamide gradient gel) | disruption of the mutant ERR3 LBD/GST-SRC-1 RID complex ([2]; mutant F435L) | disruption of the mutant ERR3 LBD/GST-SRC-1 RID complex ([2]; mutants A272F or A272L) | antagonist action on mutant ERR3 LBD in vitro ([2]; mutants F435L, L345I-F435L, L345I-F435L-F450L) | repression of Gal4-ERR3 constitutive activity below basal levels of the TK promoter ([3]; Gal4(3×)-TK-LUC reporter) | transcriptional activity of Gal4-ERR3 ([3]; Gal4(5×)-TATA-LUC reporter, 10^−6M 4-OHT) | transcriptional activity of Gal4-ERR3 mutants ([4]; Gal4-ERR3(A272F) or Gal4-ERR3(A272L)) | transcriptional activity of Gal4-ERR3 mutants ([4]; Gal4-ERR3(F435L) and Gal4-ERR3(L345I-F435L-F450L)) | active repression of transcription of the TK promoter by full length ERR3 [5] | effect on ERR3 transcriptional activity [6] | binding to ERR isotypes ([7]; listed as 40HT) | binding to ERR isotypes [7] | affinity of binding to ERR3 [8] | effect on ERRα basal activity [9] | activation of ERR1 F328A mutant [10] |
| --- | --- | --- | --- | --- | --- | --- | --- | --- | --- | --- | --- | --- | --- | --- | --- | --- |
| 4-hydroxytamoxifen [4-OHT] | significant conformational change | specifically disrupted | still disrupted | no effect is observed | still acts as an antagonist | neither 4-OHT nor DES repress the constitutive activity of Gal4-ERR3 below basal levels | blocked efficiently | but not of Gal4-ERR3(A272F) or Gal4-ERR3(A272L) | antagonizes the transcriptional activity | does not actively repress transcription of the TK promoter | repressed transactivation; also recorded: selectively block the transcriptional activity of ERR3 | binds both ERR2 and ERR3 | does not bind ERR1; also recorded: binds to ERR2 and ERR3 but not to ERR1 | submicromolar | – | – |
| ClC1=C(Cl)C2(Cl)C3C(Cl)C(Cl)CC3C1(Cl)C2(Cl)Cl (centres unmarked) [chlordane] | – | – | – | – | – | – | – | – | – | – | – | – | – | – | decrease ERRα basal activity | – |
| CC1(C)C(C(Cl)Cl)C2(Cl)C(Cl)C(Cl)C1(Cl)C2(Cl)Cl (centres unmarked) [toxaphene] | – | – | – | – | – | – | – | – | – | – | – | – | – | – | decrease ERRα basal activity | can be activated by toxaphene |
